# Results reported in PubChem BioAssay (NCI).
#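 GI50 is the concentration that inhibits growth by half. TGI: concentration producing complete growth inhibition.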
# Assays:
# Test in all cases: NCI anticancer screen, dose series, 384-well format
# NCI-H322M lung = system: NCI-H322M lung
# MALME-3M melanoma = system: MALME-3M melanoma
# T-47D breast = system: T-47D breast
# SNB-19 CNS = system: SNB-19 CNS
# M14 melanoma = system: M14 melanoma
# 786-0 renal = system: 786-0 renal
# UACC-62 melanoma = system: UACC-62 melanoma
# UO-31 renal = system: UO-31 renal
# MOLT-4 leukemia = system: MOLT-4 leukemia
# KM12 colon = system: KM12 colon
# A498 renal = system: A498 renal
# HL-60(TB) leukemia = system: HL-60(TB) leukemia
# SK-MEL-2 melanoma = system: SK-MEL-2 melanoma
# MCF7 breast = system: MCF7 breast
# HOP-92 NSCLC = system: HOP-92 NSCLC
# OVCAR-5 ovarian = system: OVCAR-5 ovarian
# IGROV1 ovarian = system: IGROV1 ovarian
# SK-MEL-5 melanoma = system: SK-MEL-5 melanoma
# NCI-H23 lung = system: NCI-H23 lung
# RXF 393 renal = system: RXF 393 renal
# TK-10 renal = system: TK-10 renal
# HS 578T breast = system: HS 578T breast
# A549 NSCLC = system: A549 NSCLC
# U251 glioblastoma = system: U251 glioblastoma
# SN12C renal = system: SN12C renal
# NCI-H460 NSCLC = system: NCI-H460 NSCLC
# BT-549 breast = system: BT-549 breast
# LOX IMVI melanoma = system: LOX IMVI melanoma
# PC-3 prostate = system: PC-3 prostate
# SK-OV-3 ovarian = system: SK-OV-3 ovarian
# EKVX NSCLC = system: EKVX NSCLC
# UACC-257 melanoma = system: UACC-257 melanoma
# HCT-116 colon = system: HCT-116 colon
# COLO 205 colon = system: COLO 205 colon
# MDA-MB-231 breast = system: MDA-MB-231 breast
# NCI-H226 lung = system: NCI-H226 lung
# MDA-MB-468 breast = system: MDA-MB-468 breast
# SNB-75 CNS = system: SNB-75 CNS
# NCI/ADR-RES ovarian = system: NCI/ADR-RES ovarian
# OVCAR-3 ovarian = system: OVCAR-3 ovarian
# DU-145 prostate = system: DU-145 prostate
# RPMI-8226 leukemia = system: RPMI-8226 leukemia
# SF-295 CNS = system: SF-295 CNS
# HCC-2998 colon = system: HCC-2998 colon
# CCRF-CEM leukemia = system: CCRF-CEM leukemia
# SW-620 colon = system: SW-620 colon
# CAKI-1 renal = system: CAKI-1 renal
smiles,measurement,setting,value
Cc1[nH]c2ccccc2c1CCNCc1ccc(/C=C/C(=O)NO)cc1,GI50,NCI-H322M lung,13.9 nM
same,TGI,NCI-H322M lung,53.8 nM
same,GI50,MALME-3M melanoma,< 0.01 µM
same,TGI,MALME-3M melanoma,16.3 nM
same,GI50,T-47D breast,< 0.0109 µM
same,TGI,T-47D breast,21.4 nM
same,GI50,SNB-19 CNS,23.4 nM
same,TGI,SNB-19 CNS,65.3 nM
same,GI50,M14 melanoma,14.7 nM
same,TGI,M14 melanoma,82.2 nM
same,GI50,786-0 renal,21.4 nM
same,TGI,786-0 renal,114 nM
same,GI50,UACC-62 melanoma,< 0.01 µM
same,TGI,UACC-62 melanoma,16.1 nM
same,GI50,UO-31 renal,31.8 nM
same,TGI,UO-31 renal,128 nM
same,GI50,MOLT-4 leukemia,< 0.01 µM
same,TGI,MOLT-4 leukemia,< 0.01 µM
same,GI50,KM12 colon,23.1 nM
same,TGI,KM12 colon,94.8 nM
same,GI50,A498 renal,16.6 nM
same,TGI,A498 renal,36 nM
same,GI50,HL-60(TB) leukemia,< 0.01 µM
same,TGI,HL-60(TB) leukemia,< 0.01 µM
same,GI50,SK-MEL-2 melanoma,< 0.01 µM
same,TGI,SK-MEL-2 melanoma,< 0.01 µM
same,GI50,MCF7 breast,< 0.011 µM
same,TGI,MCF7 breast,25.9 nM
same,GI50,HOP-92 NSCLC,13.3 nM
same,TGI,HOP-92 NSCLC,32.5 nM
same,GI50,OVCAR-5 ovarian,10.1 nM
same,TGI,OVCAR-5 ovarian,33.7 nM
same,GI50,IGROV1 ovarian,10.8 nM
same,TGI,IGROV1 ovarian,26.4 nM
same,GI50,SK-MEL-5 melanoma,< 0.01 µM
same,TGI,SK-MEL-5 melanoma,14 nM
same,GI50,NCI-H23 lung,13.9 nM
same,TGI,NCI-H23 lung,41.1 nM
same,GI50,RXF 393 renal,< 0.0117 µM
same,TGI,RXF 393 renal,18.6 nM
same,GI50,TK-10 renal,17.3 nM
same,TGI,TK-10 renal,55.2 nM
same,GI50,HS 578T breast,11.5 nM
same,TGI,HS 578T breast,24.3 nM
same,GI50,A549 NSCLC,15.6 nM
same,TGI,A549 NSCLC,42.2 nM
same,GI50,U251 glioblastoma,12.2 nM
same,TGI,U251 glioblastoma,26.8 nM
same,GI50,SN12C renal,18.6 nM
same,TGI,SN12C renal,41.1 nM
same,GI50,NCI-H460 NSCLC,12.5 nM
same,TGI,NCI-H460 NSCLC,51.1 nM
same,GI50,BT-549 breast,43.4 nM
same,TGI,BT-549 breast,123 nM
same,GI50,LOX IMVI melanoma,13.1 nM
same,TGI,LOX IMVI melanoma,26.2 nM
same,GI50,PC-3 prostate,14.2 nM
same,TGI,PC-3 prostate,39.9 nM
same,GI50,SK-OV-3 ovarian,15.4 nM
same,TGI,SK-OV-3 ovarian,33.3 nM
same,GI50,EKVX NSCLC,42.7 nM
same,TGI,EKVX NSCLC,398 nM
same,GI50,UACC-257 melanoma,< 0.0107 µM
same,TGI,UACC-257 melanoma,24.4 nM
same,GI50,HCT-116 colon,< 0.01 µM
same,TGI,HCT-116 colon,17.9 nM
same,GI50,COLO 205 colon,12.3 nM
same,TGI,COLO 205 colon,22.7 nM
same,GI50,MDA-MB-231 breast,12.1 nM
same,TGI,MDA-MB-231 breast,30.5 nM
same,GI50,NCI-H226 lung,35.9 nM
same,TGI,NCI-H226 lung,133 nM
same,GI50,MDA-MB-468 breast,< 0.01 µM
same,TGI,MDA-MB-468 breast,17.9 nM
same,GI50,SNB-75 CNS,< 0.0124 µM
same,TGI,SNB-75 CNS,45.9 nM
same,GI50,NCI/ADR-RES ovarian,39 nM
same,TGI,NCI/ADR-RES ovarian,181 nM
same,GI50,OVCAR-3 ovarian,16.7 nM
same,TGI,OVCAR-3 ovarian,43.7 nM
same,GI50,DU-145 prostate,< 0.01 µM
same,TGI,DU-145 prostate,17.9 nM
same,GI50,RPMI-8226 leukemia,< 0.01 µM
same,TGI,RPMI-8226 leukemia,< 0.01 µM
same,GI50,SF-295 CNS,18.5 nM
same,TGI,SF-295 CNS,41.3 nM
same,GI50,HCC-2998 colon,15.1 nM
same,TGI,HCC-2998 colon,33.7 nM
same,GI50,CCRF-CEM leukemia,< 0.01 µM
same,TGI,CCRF-CEM leukemia,< 0.01 µM
same,GI50,SW-620 colon,12.3 nM
same,TGI,SW-620 colon,25.5 nM
same,GI50,CAKI-1 renal,13.1 nM
same,TGI,CAKI-1 renal,28.6 nM
COCCNc1cc(NC(=O)N2CCCc3cc(CN4CCN(C)CC4=O)c(C=O)nc32)ncc1C#N,GI50,NCI-H322M lung,> 100000 nM
same,TGI,NCI-H322M lung,> 100000 nM
same,GI50,MALME-3M melanoma,> 100 µM
same,TGI,MALME-3M melanoma,> 100000 nM
same,GI50,T-47D breast,> 77.7 µM
same,TGI,T-47D breast,> 100000 nM
same,GI50,SNB-19 CNS,> 100000 nM
same,TGI,SNB-19 CNS,> 100000 nM
same,GI50,M14 melanoma,> 100000 nM
same,TGI,M14 melanoma,> 100000 nM
same,GI50,786-0 renal,> 100000 nM
same,TGI,786-0 renal,> 100000 nM
same,GI50,UACC-62 melanoma,> 100 µM
same,TGI,UACC-62 melanoma,> 100000 nM
same,GI50,UO-31 renal,> 100000 nM
same,TGI,UO-31 renal,> 100000 nM
same,GI50,MOLT-4 leukemia,6.8 µM
same,TGI,MOLT-4 leukemia,> 100 µM
same,GI50,KM12 colon,> 100000 nM
same,TGI,KM12 colon,> 100000 nM
same,GI50,A498 renal,> 100000 nM
same,TGI,A498 renal,> 100000 nM
same,GI50,HL-60(TB) leukemia,99.6 µM
same,TGI,HL-60(TB) leukemia,> 100 µM
same,GI50,SK-MEL-2 melanoma,> 100 µM
same,TGI,SK-MEL-2 melanoma,> 100 µM
same,GI50,MCF7 breast,> 100 µM
same,TGI,MCF7 breast,> 100000 nM
same,TGI,HOP-92 NSCLC,> 100000 nM
same,GI50,OVCAR-5 ovarian,> 100000 nM
same,TGI,OVCAR-5 ovarian,> 100000 nM
same,GI50,IGROV1 ovarian,> 100000 nM
same,TGI,IGROV1 ovarian,> 100000 nM
same,GI50,SK-MEL-5 melanoma,> 100 µM
same,TGI,SK-MEL-5 melanoma,> 100000 nM
same,GI50,NCI-H23 lung,> 100000 nM
same,TGI,NCI-H23 lung,> 100000 nM
same,GI50,RXF 393 renal,> 100 µM
same,TGI,RXF 393 renal,> 100000 nM
same,GI50,TK-10 renal,> 84900 nM
same,TGI,TK-10 renal,> 100000 nM
same,GI50,HS 578T breast,> 100000 nM
same,TGI,HS 578T breast,> 100000 nM
same,GI50,A549 NSCLC,> 100000 nM
same,TGI,A549 NSCLC,> 100000 nM
same,GI50,U251 glioblastoma,> 100000 nM
same,TGI,U251 glioblastoma,> 100000 nM
same,GI50,SN12C renal,> 100000 nM
same,TGI,SN12C renal,> 100000 nM
same,GI50,NCI-H460 NSCLC,> 100000 nM
same,TGI,NCI-H460 NSCLC,> 100000 nM
same,GI50,BT-549 breast,> 100000 nM
same,TGI,BT-549 breast,> 100000 nM
same,GI50,LOX IMVI melanoma,> 100000 nM
same,TGI,LOX IMVI melanoma,> 100000 nM
same,GI50,PC-3 prostate,> 100000 nM
same,TGI,PC-3 prostate,> 100000 nM
same,GI50,SK-OV-3 ovarian,> 100000 nM
same,TGI,SK-OV-3 ovarian,> 100000 nM
same,GI50,EKVX NSCLC,> 100000 nM
same,TGI,EKVX NSCLC,> 100000 nM
same,GI50,UACC-257 melanoma,> 100 µM
same,TGI,UACC-257 melanoma,> 100000 nM
same,GI50,HCT-116 colon,> 100 µM
same,TGI,HCT-116 colon,> 100000 nM
same,GI50,COLO 205 colon,> 100000 nM
same,TGI,COLO 205 colon,> 100000 nM
same,GI50,MDA-MB-231 breast,> 100000 nM
same,TGI,MDA-MB-231 breast,> 100000 nM
same,GI50,NCI-H226 lung,> 100000 nM
same,TGI,NCI-H226 lung,> 100000 nM
same,GI50,MDA-MB-468 breast,4.83 µM
same,TGI,MDA-MB-468 breast,> 100000 nM
same,GI50,SNB-75 CNS,> 100 µM
same,TGI,SNB-75 CNS,> 100000 nM
same,GI50,NCI/ADR-RES ovarian,> 100000 nM
same,TGI,NCI/ADR-RES ovarian,> 100000 nM
same,GI50,OVCAR-3 ovarian,> 69300 nM
same,TGI,OVCAR-3 ovarian,> 100000 nM
same,GI50,DU-145 prostate,> 100 µM
same,TGI,DU-145 prostate,> 100000 nM
same,GI50,RPMI-8226 leukemia,> 21.1 µM
same,TGI,RPMI-8226 leukemia,> 43.9 µM
same,GI50,SF-295 CNS,> 100000 nM
same,TGI,SF-295 CNS,> 100000 nM
same,GI50,HCC-2998 colon,> 100000 nM
same,TGI,HCC-2998 colon,> 100000 nM
same,GI50,CCRF-CEM leukemia,27 µM
same,TGI,CCRF-CEM leukemia,> 100 µM
same,GI50,SW-620 colon,> 100000 nM
same,TGI,SW-620 colon,> 100000 nM
same,GI50,CAKI-1 renal,> 100000 nM
same,TGI,CAKI-1 renal,> 100000 nM
